A short description of series [1]: Hygroscopicity of co-crystals. Format: physicochemical.
A short description of series [2]: BCS classification of co-crystals (aqueous solubility). The format is physicochemical. As to conditions: for BCS Class (Stahl et al): Table 10.
A short description of series [3]: Pharmacokinetic study after oral administration. The format is in vivo, cynomolgus monkeys. The following applies: monkeys, oral dose of 10 mg/kg, compared with glutaric acid co-crystal. The source says: Studies were undertaken to compare the pharmacokinetics (PK) of the glutaric acid co-crystal to the PK of the tosylate salt of the Formula I compound. A 3% solution of Blanose 7LF PM without preservatives was used to formulate the glutaric acid co-crystal and tosylate salt. Results from a pharmacokinetic study in cynomolgus monkeys indicate that the plasma concentration of the glutaric acid co-crystal was greater than the corresponding tosylate salt following oral administration of each compound.
In this study, each compound was administered orally at a dose of 10 mg/kg to cynomolgus monkeys. Following administration, blood was obtained from each test subject at 0 min, 60 min, 120 min and 180 minutes. After separating the plasma from whole blood an aliquot to each plasma sample was denature by the addition of 70% ethanol. The denatured protein was pelleted by centrifugation and the supernatant was collected and dried using a stream of dry nitrogen gas. The pellet thus obtained was re-constituted in water containing 0.1% formic acid and the re-constituted mixture was analyzed by UPLC using a HSS-T3 (high strength silica) column or an YMC TriartC-18 column. Gradient elution using a mixture of water containing 0.1% HCOOH (mobile phase-A) and acetonitrile containing 0.1% HCOOH (mobile phase-B) was employed for analysis of the pharmacokinetic (PK) samples.

Series [4] in a line: Solid state stability by UPLC. The following applies: for T0 % Area Formula I: free base forms. The format is physicochemical. How it is done:
Solid state stability studies were performed by storing a test sample of the co-crystal at different temperatures and under conditions of different relative humidity for a period of one to three months. Stability was judged by Ultra performance liquid chromatography (UPLC) analysis of the test co-crystals. Percent degradation of API in a test sample of the co-crystal was calculated as follows: Co-crystals in accordance with the invention are fairly stable across the temperature range used in the study. […] Without ascribing to a particular theory, crystallinity may contribute to the stability of inventive co-crystals. Table 7 illustrates data from a stability of a Formula I glutaric acid co-crystal in accordance with the invention across a range of temperatures and in the presence of 75% relative humidity at 40° C. […] Further supporting the hypothesis that crystallinity contributes to increased stability was provided by comparing the amorphous form of the free base of a Formula I compound to the crystalline form of a Formula I compound as illustrated in Table 8.

Series [5] is described as follows: Excipient compatibility assay (COMPASS), ternary mixtures. As to conditions: glutaric acid co-crystal ternary mixtures. The format is physicochemical. Here is the method:
Compatibility of the inventive co-crystals with pharmaceutically acceptable excipients was determined by the classic compatibility assay (COMPASS). According to this method, excipient compatibility was investigated by physically mixing the inventive glutaric acid co-crystals with a single pharmaceutical excipient so as to form a binary mixture or by physically mixing the inventive glutaric acid co-crystals with mixtures containing two or more excipients (ternary mixture). Each binary mixture contained 5% by weight of the Formula I compound, whereas the weight percent of the Formula I compound in a ternary mixture was 50%. The test mixtures were stored at 50° C. for 4 weeks or at a temperature of 40° C. and a relative humidity of 75% for 4 weeks.
The inventive co-crystals are compatible with fillers and/or excipients commonly used in the manufacture of pharmaceutical compositions. Table 4 illustrates the results of a compatibility study using ternary mixtures of the inventive glutaric acid co-crystal of the Formula I compound. Table 5 illustrates the results for a similar study using ternary mixtures of the tosylate salt of the Formula I compound.
Ternary mixtures comprising the inventive glutaric acid co-crystal or the tosylate salt of a Formula I compound contained the following excipients in proportions illustrated in Table 6 below.

The next series deals with HBV. Description: microbe, parasite or virus in culture. How it is done:
Direct inhibition of viral replication was evaluated by monitoring the levels of secreted HBV DNA and the levels of HBV surface antigen (HBsAg) in cultures containing HBV infected HepaRG cells.
After three days incubation, the combined medium was replaced with differentiation medium and the cells were maintained in the differentiation medium for an additional 2 to 4 weeks. The differentiation medium was renewed every 2 to 3 days throughout the incubation period. Differentiated HepaRG cells (HepaRGd) display hepatocyte-like cell islands surrounded by monolayer of biliary-like cells. Prior to HBV infection and compound treatment, HepaRGd cells were seeded into collagen I coated 96-well plates (Gibco, Cat# A11428-03) at 50,000 to 60,000 cells per well. Cells were allowed to recover their differentiated phenotype in 96-well plates for at least 1 week after plating prior to HBV infection.
HBV inoculum was collected from HepG2.2.15 cultured cells, a cell line that supports HBV (genotype D, strain ayw) replication and virion secretion as disclosed in Sells M A., et al., PNAS, 84(4): 1005-1009. HepG2.2.15 cells were maintained in DMEM+GlutaMAX-I (Invitrogen) containing 1× Pen/Strep (Invitrogen), 10% FBS, and 0.25 mg/ml G-418 (Invitrogen) using hyperflasks (Corning) pre-coated with collagen I (BD Biosciences). Upon reaching confluency, HepG2.2.15 culture media was replaced with DMEM+GlutaMAX-I containing 1× Pen-Strep, 2.5% FBS, and 1% DMSO for 3 days and then replaced with DMEM+GlutaMAX-I containing 1× Pen-Strep and 1% DMSO. The 1% DMSO containing media was collected every 3 to 4 days over a two week period and HBV infectious virions and subviral particles were pelleted by ultracentrifugation through a 20% sucrose cushion in a Ti 45 Beckman rotor at 45,000 rpm for 3 hours at 4° C. The pellets were resuspended in WEM at a concentration of 10^8-10^9 genome equivalents (GE) per ml, determined by real time PCR as described below using a genotype D HBV containing plasmid DNA as an internal standard. To evaluate the infectivity of the inoculum, HepaRGd cells in 96-well plates were infected in differentiation medium containing 50 to 200 GE/cell and 4% PEG 8000 (PolyEthylene Glycol 8000, Sigma, Cat# P5413-500G) for 16 hr at 37° C. At the end of the infection, HBV inoculum was removed and cells were washed 3 times with differentiation medium. Differentiation medium was replenished every 2 to 3 days and HBV replication was monitored by measuring secreted HBV DNA, hepatitis B surface (HBsAg) and/or e (HBeAg) antigens.
HBsAg was detected from 50 μL of HBV infected HepaRG supernatants using the HBsAg chemiluminescence immunoassay (CLIA) kit following instructions as recommended by the manufacturer (Autobio Diagnostics Co., Zhengzhou, China). HBV DNA was extracted from 50 μL of HBV infected HepaRGd supernatants using the MagNA Pure 96 DNA and Viral NA Small Volume Kit (Roche, Cat#05 467 497 001). […] All PCR reactions were performed using the ViiA7 Real Time PCR system (Life Technologies).
Both direct and indirect inhibitory activity of HBV replication was measured. […] Aliquots of these reagents were added to independent wells of a 96-well culture plate containing HBV infected HepaRGd cells on day 4 post infection. The final concentration of DMSO in each well was 2%. The HepaRGd cells used in the inhibition study were maintained in differentiation media containing 2% DMSO.

Series [6] concerns HBV infected HepaRGd cells. Briefly: Cell viability by CellTiter-Glo, direct treatment. Format: cell-based.
Setting [7] is: 4 weeks/40° C./ambient conditions (closed container).
Where [8] appears, read: read-out: EC50 against HBV DNA secretion, HBV infected HepaRG cell assay.

The results in this text go back to patent US9676793B2, “Co-crystals of 5-amino-2-oxothiazolo[4,5-d]pyrimidin-3(2H)-yl-5-hydroxymethyl tetrahydrofuran-3-yl acetate and methods for preparing and using the same” (Hoffmann-La Roche Inc., priority 2014, dated 2017).

Read-outs that look alike come from different tables or passages of the source.

As for “5-amino-3-(2′-O-acetyl-3′-deoxy-β-D-ribofuranosyl)-3H-thiazolo[4,5]pyrimidine-2-one [glutaric acid co-crystal]”, the Hygroscopicity result in series [1] (grade in words) was “slightly”; in series [1] (mass change ±) it was “(±0.3%-m/m)”. Moreover, in series [2] (Table 1), the “BCS Class” value was 1. The “BCS Class (Stahl et al)” value in series [2] was 1.

Take `Nc1ccccc1C(=O)O` [2-aminobenzoic acid]: the Hygroscopicity entry in series [1] (grade in words) is given as “slightly”; in series [1] (mass change ±), “(±1.8%-m/m)”.

As for `CC(=O)OC1CC(CO)OC1n1c(=O)sc2cnc(N)nc21.Cc1ccc(S(=O)(=O)O)cc1` (stereo not drawn) [Tosylate Salt, 5-amino-2-oxothiazolo[4,5-d]pyrimidin-3(2H)-yl-5-hydroxymethyl tetrahydrofuran-3-yl acetate], in series [3], the “levels of the de-acetylated form of the Formula I compound and biologically active species in plasma” value is “lower levels”.

Turning to `CC(=O)O[C@@H]1C[C@@H](CO)O[C@H]1n1c(=O)sc2cnc(N)nc21` [free base Formula I-amorphous, 5-amino-2-oxothiazolo[4,5-d]pyrimidin-3(2H)-yl-5-hydroxymethyl tetrahydrofuran-3-yl acetate], in series [4] (4 weeks/40° C./75% r.h.), the “% Area Formula I” value is listed as 86.34 % Area, the “% degradation” value came out at 13.57% and the stability grade result is listed as “very”. Moreover, in series [4] (setting [7]), the “% Area Formula I” value is listed as 98.89 % Area, the “% degradation” value is 1.011% and the stability grade entry was “(moderately”. Further, in series [4], the “T0 % Area Formula I” value is reported as 99.90 % Area.

`CC(=O)O[C@@H]1C[C@@H](CO)O[C@H]1n1c(=O)sc2cnc(N)nc21` [free base Formula I-crystalline, 5-amino-2-oxothiazolo[4,5-d]pyrimidin-3(2H)-yl-5-hydroxymethyl tetrahydrofuran-3-yl acetate]: the “% Area Formula I” value in series [4] (4 weeks/40° C./75% r.h.) came out at 99.56 % Area; in series [4] (setting [7]), 99.52 % Area; in series [5] (4 weeks at 40° C./75% RH) it was 99.740 % area; in series [5] (4 weeks at 50° C.), 99.670 % area; in series [5] (Reference 4 weeks at 2-8° C.) it was 99.710 % area. The “% degradation” value in series [4] (4 weeks/40° C./75% r.h.) is on record as 0.15%; in series [4] (setting [7]), 0.19%; in series [5] (4 weeks at 40° C./75% RH) it was −0.030%; in series [5] (4 weeks at 50° C.), 0.040%. The stability grade entry is listed as “stable” in series [4] (4 weeks/40° C./75% r.h.) and “(stable)” in series [4] (setting [7]). The “T0 % Area Formula I” value in series [4] is 99.71 % Area. Also, the Stability result in series [5] (4 weeks at 40° C./75% RH) and in series [5] (4 weeks at 50° C.) was “Fairly” throughout.

For `O=C(O)CCC(=O)C(=O)O` [α-ketoglutaric acid], the Hygroscopicity entry in series [1] (grade in words) is reported as “slightly”; in series [1] (mass change ±), “(±0.8%-m/m)”. Moreover, the “BCS Class (Stahl et al)” value in series [2] was 1.

Regarding Fumaric acid, the Hygroscopicity entry in series [1] (grade in words) was “slightly”; in series [1] (mass change ±), “(±0.6%-m/m)”.

Take IL-6: interleukin 6, cytokine: the concentration for a half-maximal effect (EC50) in the series on HBV (setting [8]) worked out at 0.027 ± 0.0073 nM; with HBV (read-out: EC50 against secretion of HBsAg, HBV infected HepaRG cell assay), 0.26 ± 0.02 nM.

“IP-10: IFNγ-induced protein 10, chemokine”: the CC50 in series [6] was above 115 nM. The EC50 in the series with HBV (read-out: EC50, HBV replication inhibitory effect, highest concentration tested) is above 115 nM.

For TNF-α, the EC50 was 0.085 ± 0.046 nM in the series on HBV (setting [8]) and 0.32 nM with HBV (read-out: EC50 against HBsAg secretion, HBV infected HepaRG cell assay, unit inferred).
